How the values were obtained:
clinical [1] = conditions: human, in vivo, iv, CL
clinical [2] = conditions: human, in vivo, iv, Vdss
clinical [3] = conditions: human, in vivo, iv, t1/2
clinical [4] = conditions: human, in vivo, iv

Structure (SMILES) | clearance (clinical [1]) | Vd (clinical [2]) | half-life (clinical [3]) | MRT (clinical [4])
COc1ccc(C(=O)Nc2ccccc2CCC2CCCCN2C)cc1 (stereo not drawn) [ENCAINIDE] | 13 mL/min/kg | 2.2 L/kg | 2.6 h | 2.8 h
N/N=c1/cc2c(n[nH]1)CCN(C(=O)c1ccccc1)C2 [ENDRALAZINE] | 13 mL/min/kg | 2.2 L/kg | 5.6 h | 2.7 h
Cc1cc(-n2cccc2)c(S(C)(=O)=O)cc1C(=O)NC(=N)N [ENIPORIDE] | 8.2 mL/min/kg | 1.1 L/kg | 2.2 h | 2.3 h
CC(C)(C)NC(=O)[C@H]1CC[C@H]2[C@@H]3CC=C4C=C(C(=O)O)CC[C@]4(C)[C@H]3CC[C@]12C [EPRISTERIDE] | 0.33 mL/min/kg | 0.54 L/kg | 27 h | 27 h
CCCCc1ncc(/C=C(\Cc2cccs2)C(=O)O)n1Cc1ccc(C(=O)O)cc1 [EPROSARTAN] | 1.9 mL/min/kg | 0.17 L/kg | 2.1 h | 1.5 h
CCCCCC/C=C\CCCCCCCCCC(=O)N[C@H]1[C@H](OC[C@H]2O[C@H](OP(=O)(O)O)[C@H](NC(=O)CC(=O)CCCCCCCCCCC)[C@@H](OCCCCCCCCCC)[C@@H]2O)O[C@H](COC)[C@@H](OP(=O)(O)O)[C@@H]1OCC[C@@H](CCCCCCC)OC [ERITORAN] | 0.013 mL/min/kg | 0.048 L/kg | 51 h | 62 h
C[C@]12CC[C@@H]3c4ccc(OC(=O)N(CCCl)CCCl)cc4CC[C@H]3[C@@H]1CC[C@@H]2OP(=O)(O)O [ESTRAMUSTINE PHOSPHATE] | 0.94 mL/min/kg | 0.12 L/kg | 2.4 h | 2.1 h
C=C(CC)C(=O)c1ccc(OCC(=O)O)c(Cl)c1Cl [ETHACRYNIC ACID] | 8.73 mL/min/kg | 0.26 L/kg | 0.5 h | 0.5 h
CCNCC(O)c1cccc(O)c1 (stereo not drawn) [ETILEFRINE] | 14 mL/min/kg | 2.1 L/kg | 2.2 h | 2.5 h
CC[C@@]1(O)C(=O)OCc2c1cc1n(c2=O)Cc2c-1nc1cc(F)c(C)c3c1c2[C@@H](N)CC3 [EXATECAN] | 0.96 mL/min/kg | 0.44 L/kg | 6.7 h | 7.6 h
O=C1NCC2(CCN(CCc3ccccc3)CC2)O1 [FENSPIRIDE] | 2.6 mL/min/kg | 3 L/kg | 14 h | 19 h
OC(Cn1cncn1)(Cn1cncn1)c1ccc(F)cc1F [FLUCONAZOLE] | 0.31 mL/min/kg | 0.75 L/kg | 30 h | 40 h
Nc1nc(=O)[nH]cc1F [FLUCYTOSINE] | 2 mL/min/kg | 0.68 L/kg | 4.2 h | 5.7 h
CCOC(=O)Nc1ccc(NCc2ccc(F)cc2)nc1N [FLUPIRTINE] | 1.6 mL/min/kg | 1.1 L/kg | 8.5 h | 11 h
C[C@@H]1O[C@@H]1P(=O)(O)O [FOSFOMYCIN] | 2 mL/min/kg | 0.32 L/kg | 1.9 h | 2.7 h
O=C(O)[C@@H]1C[C@@H](C2CCCCC2)CN1C(=O)CP(=O)(O)CCCCc1ccccc1 [FOSINOPRILAT] | 0.32 mL/min/kg | 0.13 L/kg | 9.4 h | 6.8 h
C[C@@](O)(/C=C/[C@H]1CC=CC(=O)O1)[C@@H](C[C@@H](O)\C=C/C=C\C=C\CO)OP(=O)(O)O [FOSTRIECIN] | 1.2 mL/min/kg | 0.086 L/kg | 1.5 h | 1.2 h
CN[C@@H]1CCc2[nH]c3ccc(C(N)=O)cc3c2C1 [FROVATRIPTAN] | 2.5 mL/min/kg | 3.6 L/kg | 24 h | 22 h
COc1ccc2c3c1O[C@H]1C[C@@H](O)C=C[C@@]31CCN(C)C2 [GALANTAMINE] | 5.6 mL/min/kg | 2.3 L/kg | 5.3 h | 6.8 h

Structure (SMILES) | clearance (clinical [1]) | Vd (clinical [2]) | half-life (clinical [3]) | MRT (clinical [4])
Nc1nc(O)c2ncn(COC(CO)CO)c2n1 [GANCICLOVIR] | 4.6 mL/min/kg | 1 L/kg | 3.7 h | 3.7 h
COc1c(N2CCNC(C)C2)c(F)cc2c(=O)c(C(=O)O)cn(C3CC3)c12 (stereo not drawn) [GATIFLOXACIN] | 2.8 mL/min/kg | 1.7 L/kg | 10 h | 11 h
C[C@H]([C@](O)(Cn1cncn1)c1ccc(F)cc1F)S(C)(=O)=O [GENACONAZOLE] | 0.19 mL/min/kg | 0.62 L/kg | 49 h | 54 h
C[C@@H]1C(=O)O[C@H]2C[C@@]34[C@H]5C[C@@H](C(C)(C)C)[C@]36[C@@H](OC(=O)[C@@H]6O)O[C@@]4(C(=O)O5)[C@]21O [GINKGOLIDE A] | 2.3 mL/min/kg | 0.62 L/kg | 3.8 h | 4.6 h
C[C@@H]1C(=O)O[C@H]2[C@H](O)[C@@]34[C@H]5C[C@@H](C(C)(C)C)[C@]36[C@@H](OC(=O)[C@@H]6O)O[C@@]4(C(=O)O5)[C@@]12O [GINKOLIDE B] | 2.3 mL/min/kg | 0.91 L/kg | 5.2 h | 6.6 h
CN1C2CCCC1CC(NC(=O)c1nn(C)c3ccccc13)C2 (stereo not drawn) [GRANISETRON] | 9.1 mL/min/kg | 3.7 L/kg | 5.2 h | 6.7 h
N=C(N)NC(=O)Cc1c(Cl)cccc1Cl [GUANFACINE] | 4.5 mL/min/kg | 5.6 L/kg | 15 h | 22 h
C[C@]12CCC(=O)C=C1CC[C@@H]1[C@@H]2[C@@H](O)C[C@@]2(C)[C@H]1CC[C@]2(O)C(=O)CO [HYDROCORTISONE] | 5.7 mL/min/kg | 0.38 L/kg | 1.6 h | 1.9 h
NS(=O)(=O)c1cc2c(cc1C(F)(F)F)NCNS2(=O)=O [HYDROFLUMETHIAZIDE] | 9.7 mL/min/kg | 2.2 L/kg | 5.2 h | 3.8 h
NC(=O)NO [HYDROXYUREA] | 1.5 mL/min/kg | 0.52 L/kg | 3.4 h | 4.8 h
Cc1cc(O)c2c(=O)c3c(O)cc(O)c4c5c(O)cc(O)c6c(=O)c7c(O)cc(C)c8c1c2c(c34)c(c78)c65 [HYPERICIN] | 0.13 mL/min/kg | 0.25 L/kg | 42 h | 32 h
CCCCCCCN(CC)CCCC(O)c1ccc(NS(C)(=O)=O)cc1 (stereo not drawn) [IBUTILIDE] | 26 mL/min/kg | 12 L/kg | 7 h | 7.7 h
c1ccc2c(c1)OCC(C1=NCCN1)O2 (stereo not drawn) [IDAZOXAN] | 10 mL/min/kg | 3.3 L/kg | 4.2 h | 5.5 h
O=P1(NCCCl)OCCCN1CCCl (stereo not drawn) [IFOSFAMIDE] | 1.1 mL/min/kg | 0.62 L/kg | 6.6 h | 9.4 h
C[N+](C)([O-])CCCN1c2ccccc2CCc2ccccc21 [IMIPRAMINOXIDE] | 12 mL/min/kg | 1.9 L/kg | 1.8 h | 2.6 h
Cc1cnc(NCCCN(C)C)c2c1[nH]c1ccc3cc(O)ccc3c12 [INTOPLICINE] | 18 mL/min/kg | 11 L/kg | 19 h | 11 h
CNC(=O)c1c(I)c(NC(C)=O)c(I)c(C(=O)O)c1I [IOTHALAMIC ACID] | 2.4 mL/min/kg | 0.17 L/kg | 1.3 h | 1.2 h
CC1=C(CO)C2=C(C)C3(CC3)[C@@](C)(O)C(=O)C2=C1 [IROFULVEN] | 140 mL/min/kg | 3.1 L/kg | 0.3 h | 0.4 h
